Assay results: patent publication US5401739A, “Benzothiadiazine derivatives” (Taiho Pharmaceutical Co. Ltd., priority 1991, dated 1995)

What was measured:
[1] = test system: gastric acid secretion; test: Inhibitory activity on gastric acid secretion (pylorus ligation, Pharmacological Test 1); assay type: in vivo, Male Wistar rats
Protocol: Inhibitory activity on gastric acid secretion:
(§1) Male Wistar rats (weighing 172 to 200 g) were divided into groups, 7 to 8 rats in each group. The animals were fasted for 24 hours. Under ether anesthesia, the abdomen was incised and the pylorus was ligated according to the method of Shay et al. [Gastroenterology, 1, 420 (1963)]. The animals were sacrificed 4 hours later, and the stomach was removed to collect gastric juice, which was then centrifuged (3000 r.p.m., 10 minutes). The volume of gastric juice and the acidity were measured. The compound to be tested was dissolved in water, and the solution was intraduodenally given to animals at varying doses immediately after the ligation of the pylorus.

[2] = test system: gastric acid secretion; test: Inhibitory activity on gastric acid secretion, comparison with Compound A (Pharmacological Test 3); assay type: in vivo, Male Wistar rats; conditions: 30 mg/kg; for Percent inhibition on gastric acid secretion: Table 7, intraduodenal as in Test 1
Protocol: as §1
Inhibitory activity on gastric acid secretion was measured in the same manner as in Pharmacological Test 1 with use of Compound 2 below as the present compound and, for comparison, Compound A below of Example 37c in JP-A-116277/1984.

[3] = test system: hydrochloric acid induced-ulcer; test: Effect on hydrochloric acid induced-ulcer (Pharmacological Test 2); assay type: in vivo, Male Wistar rats; conditions: 1 h before 0.6N HCl
Protocol: Effect on hydrochloric acid induced-ulcer:
(§2) Male Wistar rats (weighing 156 to 189 g) were divided into groups, 5 to 8 rats in each group. The animals were fasted for 24 hours, and 5 ml/kg of 0.6N hydrochloric acid was given orally. The animals were sacrificed 1 hour later. The stomach was removed, and 1% formalin was injected into the removed stomach to fix the stomach. The stomach was then incised open along the greater curvature. The length (mm) of gastric lesions was measured, summed and used as an ulcer index. The compound to be tested was dissolved in water, and the solution was orally given to animals at varying doses 1 hour before the injection of hydrochloric acid.

[4] = test system: hydrochloric acid induced-ulcer; test: Effect on hydrochloric acid induced-ulcer, comparison with Compound A (Pharmacological Test 4); assay type: in vivo, Male Wistar rats; conditions: 30 mg/kg; for Percent inhibition of effect on hydrochloric acid induced-ulcer: Table 8, oral as in Test 2
Protocol: as §2

[5] = Hygroscopicity (remark in Table 1); assay type: physicochemical
[6] = Table 3, 10 mg/kg intraduodenal, 4 h, control 2.5 ± 0.5
[7] = Table 3, 10 mg/kg intraduodenal, 4 h, control 65.2 ± 10.7
[8] = Table 3, 10 mg/kg intraduodenal, 4 h, control 162.3 ± 41.6

## COc1ccc(CN(CCCOc2cccc(CN3CCCCC3)c2)C2=NS(=O)(=O)c3ccccc3N2C)cc1 [Compound 2, 3-[N-[3-[3-(piperidinomethyl)phenoxy]propyl]-4'-methoxybenzylamino]-4-methyl-1,2,4-benzothiadiazine-1,1-dioxide]
[1]; Table 2, 3 mg/kg intraduodenal, 4 h, control 78.4 ± 12.0
  Acidity: 64.8 ± 15.1 μ Eq/ml
[1]; Table 2, 3 mg/kg intraduodenal, 4 h, control 391.6 ± 161.6
  Total acid output: 247.8 ± 96.9 μ Eq
[1]; Table 2, 3 mg/kg intraduodenal, 4 h after pylorus ligation, control 4.8 ± 1.5
  Volume of gastric juice: 3.7 ± 0.9 mL
[1]; Table 2, 10 mg/kg intraduodenal, 4 h, control 4.8 ± 1.5
  Volume of gastric juice: 3.4 ± 1.8 mL
[1]; Table 2, 10 mg/kg intraduodenal, 4 h, control 78.4 ± 12.0
  Acidity: 54.9 ± 16.1 μ Eq/ml
[1]; Table 2, 10 mg/kg intraduodenal, 4 h, control 391.6 ± 161.6
  Total acid output: 205.9 ± 165.0 μ Eq
[1]; Table 2, 30 mg/kg intraduodenal, 4 h, control 4.8 ± 1.5
  Volume of gastric juice: 2.4 ± 1.4 mL
[1]; Table 2, 30 mg/kg intraduodenal, 4 h, control 78.4 ± 12.0
  Acidity: 30.9 ± 16.7 μ Eq/ml
[1]; Table 2, 30 mg/kg intraduodenal, 4 h, control 391.6 ± 161.6
  Total acid output: 85.3 ± 92.7 μ Eq
[2]
  Percent inhibition on gastric acid secretion: 95.1%
[2]; in words, vs Compound A
  inhibitory activity on gastric acid secretion, compared with Compound A: almost equal to Compound A
[3]; Table 4, 3 mg/kg oral
  Percent inhibition (ulcer index): 33.6%
[3]; Table 4, 3 mg/kg oral, control 72.7 ± 23.7
  Ulcer index: 48.3 ± 17.8 mm
[3]; Table 4, 10 mg/kg oral
  Percent inhibition (ulcer index): 55.8%
[3]; Table 4, 10 mg/kg oral, control 72.7 ± 23.7
  Ulcer index: 32.1 ± 24.9 mm
[3]; Table 4, 30 mg/kg oral
  Percent inhibition (ulcer index): 85.0%
[3]; Table 4, 30 mg/kg oral, control 72.7 ± 23.7
  Ulcer index: 10.9 ± 17.2 mm
[3]; Table 4, 100 mg/kg oral
  Percent inhibition (ulcer index): 94.5%
[3]; Table 4, 100 mg/kg oral, control 72.7 ± 23.7
  Ulcer index: 4.0 ± 6.1 mm
[4]
  Percent inhibition of effect on hydrochloric acid induced-ulcer: 86.9%
[4]; in words, vs Compound A
  effect on hydrochloric acid induced-ulcer, compared with Compound A: extremely excellent than Compound A

## CN1C(NC/C=C\COc2cccc(CN3CCCCC3)c2)=NS(=O)(=O)c2ccccc21 [Compound 22, 3-[N-[4-[3-(piperidinomethyl)phenoxy]-(cis) 2-butenyl]amino]-4-methyl-1,2,4-benzothiadiazine-1,1-dioxide]
[1]; Table 3, 3 mg/kg intraduodenal, 4 h, control 2.5 ± 0.5
  Volume of gastric juice: 2.0 ± 0.6 mL
[1]; Table 3, 3 mg/kg intraduodenal, 4 h, control 65.2 ± 10.7
  Acidity: 8.6 ± 8.2 μ Eq/ml
[1]; Table 3, 3 mg/kg intraduodenal, 4 h, control 162.3 ± 41.6
  Total acid output: 15.5 ± 9.6 μ Eq
[1]; [6]
  Volume of gastric juice: 2.3 ± 1.0 mL
[1]; [7]
  Acidity: 2.1 ± 3.9 μ Eq/ml
[1]; [8]
  Total acid output: 4.5 ± 9.4 μ Eq
[3]; Table 5, 10 mg/kg oral
  Percent inhibition (ulcer index): 16.5%
[3]; Table 5, 10 mg/kg oral, control 61.2 ± 25.4
  Ulcer index: 51.1 ± 20.4 mm
[3]; Table 5, 30 mg/kg oral
  Percent inhibition (ulcer index): 35.6%
[3]; Table 5, 30 mg/kg oral, control 61.2 ± 25.4
  Ulcer index: 39.4 ± 13.2 mm
[3]; Table 5, 100 mg/kg oral
  Percent inhibition (ulcer index): 48.4%
[3]; Table 5, 100 mg/kg oral, control 61.2 ± 25.4
  Ulcer index: 31.6 ± 5.0 mm

## CCCCN1C(NC/C=C\COc2cccc(CN3CCCCC3)c2)=NS(=O)(=O)c2ccccc21 [Compound 28]
[1]; [6]
  Volume of gastric juice: 2.2 ± 0.8 mL
[1]; [7]
  Acidity: 59.2 ± 12.4 μ Eq/ml
[1]; [8]
  Total acid output: 133.3 ± 69.0 μ Eq
[1]; Table 3, 30 mg/kg intraduodenal, 4 h, control 2.5 ± 0.5
  Volume of gastric juice: 1.5 ± 0.5 mL
[1]; Table 3, 30 mg/kg intraduodenal, 4 h, control 65.2 ± 10.7
  Acidity: 32.0 ± 14.4 μ Eq/ml
[1]; Table 3, 30 mg/kg intraduodenal, 4 h, control 162.3 ± 41.6
  Total acid output: 53.6 ± 32.9 μ Eq
[1]; Table 3, 100 mg/kg intraduodenal, 4 h, control 2.5 ± 0.5
  Volume of gastric juice: 1.1 ± 0.5 mL
[1]; Table 3, 100 mg/kg intraduodenal, 4 h, control 65.2 ± 10.7
  Acidity: 4.9 ± 8.2 μ Eq/ml
[1]; Table 3, 100 mg/kg intraduodenal, 4 h, control 162.3 ± 41.6
  Total acid output: 4.6 ± 7.1 μ Eq
[3]; Table 6, 10 mg/kg oral
  Percent inhibition (ulcer index): 22.6%
[3]; Table 6, 10 mg/kg oral, control 150.0 ± 35.2
  Ulcer index: 116.1 ± 34.9 mm
[3]; Table 6, 30 mg/kg oral
  Percent inhibition (ulcer index): 62.8%
[3]; Table 6, 30 mg/kg oral, control 150.0 ± 35.2
  Ulcer index: 55.8 ± 32.4 mm
[3]; Table 6, 100 mg/kg oral
  Percent inhibition (ulcer index): 96.6%
[3]; Table 6, 100 mg/kg oral, control 150.0 ± 35.2
  Ulcer index: 5.1 ± 4.1 mm

## COc1ccc2c(c1)N(C)C(NC/C=C\COc1cccc(CN3CCCCC3)c1)=NS2(=O)=O [Compound 29, 3-[N-[4-[3-(piperidinomethyl)phenoxy]-(cis) 2-butenyl]amino]-4-methyl-6-methoxy-1,2,4-benzothiadiazine-1,1-dioxide]
[5]
  Hygroscopicity: Hygroscopic

## CN1C(NCCCOc2cccc(CN3CCCCC3)c2)=NS(=O)(=O)c2ccccc21 [Compound A, reference compound]
[2]
  Percent inhibition on gastric acid secretion: 96.2%
[4]
  Percent inhibition of effect on hydrochloric acid induced-ulcer: 59.4%
